Experimental data as given in publication PMC7022378, “Structural Analyses on the Deamidation of N-Terminal Asn in the Human N-Degron Pathway” (Biomolecules, 2020).
Substitutions are numbered along the chain they refer to.

What was measured:
NTAN1 T255A = biological target: T1, NTAN1 T255A (Homo sapiens, UniProt Q96AB6, T255A); assay: In vitro deamidation assay, NTAN1 T255A mutant; assay type: biochemical; settings: substrate NRAAA, 100 μM, 37 °C, pH 7.0, LC-MS (Figure 3c); three independent experiments
T1 construct: The gene for full-length NTAN1 was cloned into pET-21a(+); made in house; host or cells: E. coli Rosetta 2(DE3)
T1 sequence (Q96AB6 1-310 T255A): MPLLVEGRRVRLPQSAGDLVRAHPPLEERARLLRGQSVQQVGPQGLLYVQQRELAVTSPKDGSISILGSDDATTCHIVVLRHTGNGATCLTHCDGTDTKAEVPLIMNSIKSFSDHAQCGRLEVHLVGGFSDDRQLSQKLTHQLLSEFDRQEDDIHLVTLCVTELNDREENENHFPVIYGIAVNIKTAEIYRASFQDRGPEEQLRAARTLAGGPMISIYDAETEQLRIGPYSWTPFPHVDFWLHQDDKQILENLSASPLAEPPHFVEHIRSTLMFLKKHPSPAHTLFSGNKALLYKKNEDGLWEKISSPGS
Description: (§1) NTAN1 mutants were constructed using QuikChange Ⅱ Site-Directed Mutagenesis Kit (Agilent Technologies, Santa Clara, CA, USA). NTAN1 mutants, Q51A, S69A, T73A, T74A, C75A, H92A, S254A, T255A, and E260A were generated. The mutants were expressed and purified as for NTAN1.
(§2) Peptides with Nt-Asn which mimic potential substrates of NTAN1 were synthesized: NRA, NRAA, NRAAA, NRQVA, NRQVAA, NRQVAAA, NFAAR, NLAAR, NRAAR, NAAAR, NNAAR, NPAAR, NGAAR, and NDAAR. Non-Nt-Asn peptides, QRAAA and VRAAA, were also synthesized. NTAN1 (at concentrations of 0.5 μM, 0.16 μM, or 0.04 μM) and the peptides (at a concentration of 100 μM) were mixed and incubated at 37 °C in a buffer containing 200 mM NaCl and 10 mM HEPES-NaOH (pH 7.0). […] The deamidation coefficient of peptides catalyzed by NTAN1 was assessed by the slope of exponential curve drawn from the concentration of the substrate over incubation time.
(§3) The peptides were quantified by an LC-MS system (1260 Infinity/6430 Triple Quad, Agilent Technologies) equipped with a binary pump (G1312B), a thermostated column compartment (G1316C), a thermostat (G1330B), and an autosampler (G1367E). […] The data acquisition and processing were performed by using MassHunter Workstation Software Quantitative Analysis (Version B.05.00; Agilent Technologies, Santa Clara, CA, USA). […]

NTAN1 S69A = assay: In vitro deamidation assay, NTAN1 S69A mutant; assay type: biochemical, human; settings: substrate NRAAA, 100 μM, 37 °C, pH 7.0, LC-MS (Figure 1d); three independent experiments
Description: as §1, §2, §3

NTAN1 S254A = assay: In vitro deamidation assay, NTAN1 S254A mutant; assay type: biochemical, human; settings: substrate NRAAA, 100 μM, 37 °C, pH 7.0, LC-MS (Figure 3b); three independent experiments
Description: as §1, §2, §3

NTAN1 E260A = biological target: T2, NTAN1 E260A (Homo sapiens, UniProt Q96AB6, E260A); assay: In vitro deamidation assay, NTAN1 E260A mutant; assay type: biochemical; settings: substrate NRAAA, 100 μM, 37 °C, pH 7.0, LC-MS (Figure 3d); three independent experiments
T2 construct: The gene for full-length NTAN1 was cloned into pET-21a(+); made in house; host or cells: E. coli Rosetta 2(DE3)
T2 sequence (Q96AB6 1-310 E260A): T1 sequence (Q96AB6 1-310 T255A) with A255T, E260A
Description: as §1, §2, §3

NTAN1 C75A = biological target: T3, NTAN1 C75A (Homo sapiens, UniProt Q96AB6, C75A); assay: In vitro deamidation assay, NTAN1 C75A mutant; assay type: biochemical; settings: substrate NRAAA, 100 μM, 37 °C, pH 7.0, LC-MS; vs wild-type (Figure 1e); three independent experiments
T3 construct: The gene for full-length NTAN1 was cloned into pET-21a(+); made in house; host or cells: E. coli Rosetta 2(DE3)
T3 sequence (Q96AB6 1-310 C75A): T1 sequence (Q96AB6 1-310 T255A) with C75A, A255T
Description: as §1, §2, §3

Q: Which results are given for “NRAAA [synthesized peptide with Nt-Asn, 5 mer model substrate of NTAN1]”?
A: Enzymatic activity of NTAN1 T255A (NTAN1 T255A): abolished; Fold lower deamidation activity of NTAN1 S69A than wild-type NTAN1 (NTAN1 S69A): approximately 5 fold; Lower deamidation rate of NTAN1 S254A than wild-type NTAN1 (NTAN1 S254A): threefold; Deamidation activity of NTAN1 E260A (NTAN1 E260A): lost its deamidation activity; Deamidation activity of NTAN1 C75A (NTAN1 C75A): completely abolished
